Reference: patent US20200138727A1, “ENHANCED THERAPEUTIC AGENT AND NUCLEIC ACID DELIVERY VIA HDL OR RECONSTITUTED HDL NANOPARTICLES” (UNIVERSITY OF NORTH TEXAS HEALTH SCIENCE CENTER, priority 2017, published 2020)

Experiments:
[1] = test system: DU-145 (prostate cancer) cells; assay: Confocal / fluorescence lifetime microscopy of doxorubicin uptake from rHDL-Doxorubicin nanoparticles; type: cell-based
Procedure: The data presented in FIGS. 11-12 were obtained via fluorescence lifetime microscopy via the following protocols. Apo A-I was labeled with Alexa Fluor 647 (Fluorescent dye Excitation: 650 nm; Emission:665 nm), using Alexa Fluor™ 647 Antibody Labeling Kit (by Thermo Fisher) according to the manufacturer's protocol. The rHDL-Doxorubicin nanoparticles were prepared with the Alexa Fluor 647 labeled Apo A-I, using the cholate dialysis protocol. The DU-145 (prostate cancer) cells were treated with the rHDL-Doxorubicin nanoparticles at 37° C./5% CO2 and observed under confocal microscopy for uptake of doxorubicin. In order to inhibit the uptake, […] antibody was used to block the receptor activity.
For imaging, the cells were plated on custom glass bottom petri dishes. Before imaging, the cells were washed with PBS, and doped with several concentrations of free or rHDL-doxorubicin formulations. For SR-B1 receptor blocking, the DU-145 cells were incubated with antibodies for SR-B1 receptor for 30 minutes at 5% CO2 and 37° C. The cells were excited with a 470 nm diode at 70% power, and the emission imaged at 600 nm. […] For dual label experiments, the samples were excited at 470 nm and 630 nm, with a 520 nm long pass filter on channel 1 to observe DOX fluorescence, and a 647 nm long pass on filter on channel 2 to observe […] emission. […]

[2] = test system: cancer cells; conditions: encapsulated by HDL delivery particles; HDL receptor mediated mechanism (Lacko et al., 2002); cited from earlier work

COc1cccc2c1C(=O)c1c(O)c3c(c(O)c1C2=O)C[C@@](O)(C(=O)CO)C[C@@H]3O[C@H]1C[C@H](N)[C@H](O)[C@H](C)O1 [doxorubicin]
cellular localization of doxorubicin ([1]; DU-145 cells treated with rHDL-Doxorubicin nanoparticles, FIG. 11A, FIG. 12): released into the cell cytoplasm

CC(=O)O[C@H]1C(=O)[C@@]2(C)[C@H]([C@H](OC(=O)c3ccccc3)[C@]3(O)C[C@H](OC(=O)[C@H](O)[C@@H](NC(=O)c4ccccc4)c4ccccc4)C(C)=C1C3(C)C)[C@]1(OC(C)=O)CO[C@@H]1C[C@@H]2O [paclitaxel]
uptake by cancer cells [2]: taken up by cancer cells

Alexa 647-conjugated Apo A-I: Apo A-I labeled with Alexa Fluor 647 fluorescent dye
cellular localization of labeled Apo A-I ([1]; DU-145 cells treated with rHDL-Doxorubicin nanoparticles prepared with labeled Apo A-I, FIG. 11B): only localized in the membrane of the cell and does not enter the cell
